Earlier results, collected in patent US20130316926A1, “METHOD FOR THE MONITORING OF SMOKING CESSATION COMPLIANCE AND RECOVERY, THERAPEUTIC INTERVENTION, AND RISK MANAGEMENT” (Health Diagnostic Laboratory, Inc., priority 2012, published 2013).
Like-named read-outs stand apart in the source and are kept apart here.

Tests used:
[1] = for t½: b55, cotinine value is an average
[2] = for urinary concentration: tobacco user, regardless of nicotine replacement therapy

half-life ([1]; b40, Benowitz 1986) | SMILES | half-life [1] [h] | time to reach the central nervous system ([1]; after tobacco smoke inhalation) [s] | t½ [1] [h] | fraction of circulating nicotine metabolized to cotinine ([1]; by cytochrome P450 and aldehyde oxidase) [%] | distribution half-life ([1]; in vivo) [min] | elimination half-life ([1]; in vivo) [h] | nicotine leaving the liver in metabolite forms ([1]; on average) [%] | nicotine that enters the liver and exits unchanged ([1]; on average) [%] | Concentration of Urinary: Non-tobacco user with no passive exposure [2] [ng/mL] | Concentration of Urinary: Non-tobacco user with Passive exposure [2] [ng/mL] | Concentration of Urinary: Tobacco user after 2 weeks' abstinence [2] [ng/mL] | concentration in urine of tobacco users [2] | urinary concentration [2] [ng/mL]
 | CN1CCCC1c1cccnc1 (centres unmarked) [Nicotine] | 2 | ≤ 20 | 2 | 70 | 8 | 2 | 70 | 30 | <2.0 | <20 | <30 | 1,000-5,000 ng/mL | 
 | c1cncc([C@@H]2CCCCN2)c1 [Anabasine] |  |  |  |  |  |  |  |  | <2.0 | <2.0 | <2.0 |  | > 10
about 20 hrs | CN1C(=O)CC[C@H]1c1cccnc1 [Cotinine] | 15 |  | 16 |  |  |  |  |  | <5.0 | <20 | <50 | 1,000-8,000 ng/mL | 
 | CN1C(=O)[C@H](O)C[C@H]1c1cccnc1 (relative stereo) [trans-3-hydroxycotinine] | 10 |  |  |  |  |  |  |  | <50 | <50 | <120 | 3,000-25,000 ng/mL | 
 | c1cncc([C@@H]2CCCN2)c1 [Nornicotine] |  |  |  |  |  |  |  |  | <2.0 | <2.0 | <2.0 |  | > 30
